Test results taken from patent publication US20190175519A1, “Naloxone Transdermal Delivery Devices and Methods for Using the Same” (Teikoku Pharma USA, Inc., priority 2017, published 2019).

Experiment: Pharmacokinetics of transdermal naloxone formulations compared to intravenously administered naloxone
Set-up: species or system Gottingen mini-pigs
Conditions: female, Gottingen, minipig, in vivo; IV bolus 0.01 mg/kg via marginal ear vein; first time point collected; post dose
Text: The purpose of this study was to determine the dermal irritation and pharmacokinetics of two transdermal naloxone formulations when worn for three days by naïve female Gottingen mini-pigs and to compare the pharmacokinetic transdermal profiles to the PK of intravenously (IV) administered naloxone.
Test materials (Naloxone Transdermal Formulations 1 & 2) were in the form of a single patch that was applied to the prepared skin site of the animals and remained on for a period of three (3) days.
The positive control article (marketed formulation), Naloxone (Narcan 0.4 mg/mL) was diluted with sterile 0.9% normal saline to a concentration of 0.04 mg/mL in order to achieve a desired dose volume of 0.25 mL/kg and dosage of 0.01 mg/kg. […]
Group 3: Narcan intravenous formulation (0.4 mg/mL) was diluted with sterile 0.9% normal saline to a concentration of 0.04 mg/mL. The dose volumes were calculated using the individual body weights of the pigs on the day of dosing. […]
The time of Test Material patch application and removal were recorded for each animal so that dermal scoring and PK time-points were calculated. The time of intravenous injection was also recorded so that PK time-points were calculated.

C=CCN1CC[C@]23c4c5ccc(O)c4O[C@H]2C(=O)CC[C@@]3(O)[C@H]1C5 [Naloxone, 17-allyl-4,5α-epoxy-3,14-dihydroxymorphinan-6-one]
Tmax: 5 min
